Assay results published in patent publication US20240207258A1, “HETEROCYCLIC PDK1 INHIBITORS FOR USE TO TREAT CANCER” (Viracta Therapeutics, Inc., priority 2015, published 2024).

Legend:
[1] = target: T1, Full-length phosphorylated PDK1 (Homo sapiens, UniProt O15530); assay: Fluorescence polarization PIF-tide binding assay; settings: PDK1 saturating amounts of compound, FIG. 13C
T1 sequence (O15530 1-556): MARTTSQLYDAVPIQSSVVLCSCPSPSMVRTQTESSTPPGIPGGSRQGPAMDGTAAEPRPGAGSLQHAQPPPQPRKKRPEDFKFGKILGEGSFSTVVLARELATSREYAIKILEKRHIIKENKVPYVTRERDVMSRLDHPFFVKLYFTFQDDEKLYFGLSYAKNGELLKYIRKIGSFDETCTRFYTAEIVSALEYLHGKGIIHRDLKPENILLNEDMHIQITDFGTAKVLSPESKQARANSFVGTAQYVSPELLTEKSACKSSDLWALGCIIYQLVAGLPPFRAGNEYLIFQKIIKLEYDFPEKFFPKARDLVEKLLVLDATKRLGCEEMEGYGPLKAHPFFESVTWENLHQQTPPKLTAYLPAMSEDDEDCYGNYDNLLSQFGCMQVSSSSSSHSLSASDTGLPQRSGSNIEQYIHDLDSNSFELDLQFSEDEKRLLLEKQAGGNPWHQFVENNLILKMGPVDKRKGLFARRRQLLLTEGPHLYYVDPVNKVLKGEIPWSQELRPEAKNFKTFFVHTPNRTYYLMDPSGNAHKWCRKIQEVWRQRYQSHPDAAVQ

[2] = test system: Molm-13; assay: MTS cell proliferation assay, Molm-13; assay type: cell-based; settings: Homo sapiens; Molm-13, 72 hr
Description: (§1) Cell proliferation was measured using the CellTiter 96 Aqueous Non-Radioactive Cell Proliferation Assay (Promega). The CellTiter 96® AQueous Assay is composed of solutions of a tetrazolium compound [3-(4,5-dimethylthiazol-2-yl)-5-(3-carboxymethoxyphenyl)-2-(4-sulfophenyl)-2H-tetrazolium, inner salt; MTS] and an electron coupling reagent (phenazine methosulfate) PMS. MTS is bioreduced by cells into a formazan product that is soluble in tissue culture medium. The absorbance of the formazan product at 490 nm can be measured directly from assay plates without additional processing. The quantity of formazan product as measured by the amount of 490 nm absorbance is directly proportional to the number of living cells in culture. Cells were seeded into 96-well or 384-well clear plates in a volume of 200 μL (96-well) or 50 μL (384-well) at optimized densities ranging from 1,000 to 40,000 cells per well for 96-well plates or 1,200 to 25,000 cells per well for 384-well plates depending on cell-line. After 4-6 hr recovery, serially diluted compounds in DMSO were added to the cells using (0.1% v/v final DMSO concentration). Cells were then grown at 37° C. in a humidified incubator with 5% CO2 for 72 hr. A 20:1 [3-(4,5-dimethylthiazol-2-yl)-5-(3-carboxymethoxyphenyl)-2-(4-sulfophenyl)-2H-tetrazolium](MTS):phenazine methosulfate (PMS) solution in DPBS was made immediately before use, added to each well, and cells were incubated for 1.5 hr at 37° C. The absorbance at 490 nm was then measured using a platereader. Absorbance values were normalized as percent of control (cells incubated in the presence of 0.1% v/v DMSO). Sigmoidal dose-response curves were plotted using log(inhibitor) vs. response—Variable slope (four parameters) model with a top value constrained to 100% (GraphPad Prism version 6.00 for Windows, GraphPad Software, La Jolla California USA). […] Curves for compounds that reached a plateau were matched exactly to the measurement points. […] To determine potential of compounds of the invention to affect viability of hematological cancers, cell lines representing various tumor types were selected and tested. Human cell lines tested were: MOLM-13 (acute myeloid leukemia (AML)), MV4-11 (AML), U-2932 (ABC-diffuse large B cell lymphoma), U-937 (histiocytic lymphoma), U-266 (multiple myeloma), RPMI-8226 (multiple myeloma), CMK (megakaryoblastic cell line), SU-DHL-4 (GCB-diffuse large B cell lymphoma), KG1 (AML), Mec-1 (chronic B-cell leukemia), MOLM-16 (AML), Jeko (B-cell lymphoma), WSU-DLCL2 (B-cell lymphoma), JJN3 (plasma cell leukemia), SU-DHL-6 (GCB-diffuse large B cell lymphoma), and Z-138 (mantle cell lymphoma). In addition, two murine cell lines were tested: A20 […].

[3] = test system: MV4-11; assay: MTS cell proliferation assay, MV4-11; assay type: cell-based, human; settings: Homo sapiens, MV4-11, 72 h, read-out: MTS proliferation assay (μM)
Description: (§2) Cell proliferation was measured using the CellTiter 96 Aqueous Non-Radioactive Cell Proliferation Assay (Promega). […] MTS is bioreduced by cells into a formazan product that is soluble in tissue culture medium. The absorbance of the formazan product at 490 nm can be measured directly from assay plates without additional processing. The quantity of formazan product as measured by the amount of 490 nm absorbance is directly proportional to the number of living cells in culture. Cells were seeded into 96-well or 384-well clear plates in a volume of 200 μL (96-well) or 50 μL (384-well) at optimized densities ranging from 1,000 to 40,000 cells per well for 96-well plates or 1,200 to 25,000 cells per well for 384-well plates depending on cell-line. After 4-6 hr recovery, serially diluted compounds in DMSO were added to the cells using (0.1% v/v final DMSO concentration). Cells were then grown at 37° C. in a humidified incubator with 5% CO2 for 72 hr. A 20:1 [3-(4,5-dimethylthiazol-2-yl)-5-(3-carboxymethoxyphenyl)-2-(4-sulfophenyl)-2H-tetrazolium](MTS):phenazine methosulfate (PMS) solution in DPBS was made immediately before use, added to each well, and cells were incubated for 1.5 hr at 37° C. The absorbance at 490 nm was then measured using a platereader. Absorbance values were normalized as percent of control (cells incubated in the presence of 0.1% v/v DMSO). Sigmoidal dose-response curves were plotted using log(inhibitor) vs. response—Variable slope (four parameters) model with a top value constrained to 100% (GraphPad Prism version 6.00 for Windows, GraphPad Software, La Jolla California USA). […] To determine potential of compounds of the invention to affect viability of hematological cancers, cell lines representing various tumor types were selected and tested. […] In addition, two murine cell lines were tested: A20 […].

[4] = test system: U-2932; assay: MTS cell proliferation assay, U-2932; assay type: cell-based; settings: Homo sapiens, U2932; U-2932, 72 hr
Description: as §1

[5] = test system: RPMI-8226; assay: MTS cell proliferation assay, RPMI-8226; assay type: cell-based; settings: Homo sapiens; RPMI-8226, 72 hr
Description: as §1

[6] = test system: Jeko; assay: MTS cell proliferation assay, Jeko; assay type: cell-based; settings: Homo sapiens, 72 hr
Description: as §1

[7] = test system: A20; assay: MTS cell proliferation assay, A20; assay type: cell-based, murine; settings: Mus musculus; A20, 72 hr
Description: as §1

[8] = test system: C1498; assay: MTS cell proliferation assay, C1498; assay type: cell-based, murine; settings: Mus musculus, C1498, 72 h, read-out: MTS proliferation assay (μM)
Description: as §2

[9] = test system: MV4-11 cells; assay: Induction of apoptosis (Annexin V / propidium iodide flow cytometry); assay type: cell-based, human
Description: Cells were seeded in a six-well tissue culture plate in 3 mL complete growth medium (3×10^5 cells/well) and allowed to equilibrate for 1 hr at 37° C. in a humidified incubator with 5% CO2. DMSO (control), test compound, or doxorubicin was added to the wells (0.1% final DMSO concentration). Cells were returned to the incubator for 24 hrs. On the day of analysis 1×10^5 cells were labeled according to manufacturer's instructions and analyzed by flow cytometry (BD FACSCaalibur™, GH) to determine the percent of apoptotic cells (annexin V positive, AV+) and/or apoptotic dead cells (AV+ and propidium iodide positive (PI+)).

[10] = test system: P-AKT; assay: Western blot, AKT phosphorylation in A20 cells; assay type: cell-based, murine
Description: For phosphoprotein analyses, cells were seeded into 10 cm petri dishes (10×10^6 cells/dish) in media supplemented with 10% FBS and penicillin/streptomycin. After cells recovered for 1 hr at 37° C., compounds were added in DMSO (0.1% final) and incubated for 4 or 24 hr at 37° C. Cells were then harvested by centrifugation and washed with cold PBS. Cell pellets were resuspended in cell extraction buffer (Invitrogen) supplemented with 2×Halt™ protease and phosphatase inhibitor cocktail (Thermo Scientific), 2 mM sodium orthovanadate, 10 mM EDTA and 4 mM PMSF. Samples were lysed by sonication and incubated on ice for 30 min. Cell debris was removed by centrifugation and protein concentrations were determined using the BCA Protein Assay Kit (Pierce). The clarified lysate was diluted in LDS sample buffer with reducing agent (Life Technologies). […] Gels were run at 110 V and proteins were transferred to a PVDF membrane. Membranes were blocked in TBS blocking buffer (Li-Cor Biosciences) for 1 hr. Primary antibodies (Cell Signaling, Sant Cruz Biotechnology) were added (1:1,000 dilution) in blocking buffer with 0.1% Tween-20 and 1:20,000 dilution of β-actin antibody and incubated for 14 hr at 4° C. Blots were washed in TBS-T. Label-conjugated goat anti-rabbit secondary antibody (IRdye® 800CW; Li-Cor Biosciences) was added in blocking buffer with 0.1% Tween-20 and 0.02% SDS and incubated for 1 hr. After washing in TBS-T followed by TBS, membranes were scanned on an Odyssey imaging system (Li-Cor Biosciences). Bands were quantitated using ImageJ.

[11] = test system: P-PDK1; assay: Pathway modulation in MV4-11 tumor xenografts, pPDK1; assay type: in vivo, mice; settings: MV4-11 tumors, IP 50 mg/kg
Description: MV4-11 cells propagated in vitro were implanted subcutaneous into the right flank of 9-week old female NCr nu/nu mice. On the day of implant, MV4-11 cells were harvested during log phase growth and resuspended in phosphate buffered saline (PBS) containing 50% Matrigel™ (BD Biosciences) at a concentration of 1×10^8 cells/mL. […] Two weeks after implantation, animals were assigned to individual groups of 3 animals with and average tumor volume of approximately 200 mm^3. […] Eight hours post-dose, full blood volume was collected by cardiac puncture under isoflurane anesthesia and tumors were excised and snapfrozen in liquid nitrogen and stored at −80° C. until further analysis. Tumors were pulverized in liquid nitrogen using a Biopulverizer and split into two sample tubes: one for Western blot analysis and one for analysis of compound levels by LC-MS/MS. […] For MS analysis, tumor samples were homogenized with a Virsonic 100 ultrasonic homogenizer. Each sample was first weighed, and then an appropriate volume of 20:80 methanol:water was added to make a 9 mL/gram sample. Samples were then homogenized on ice, and stored frozen until analysis. Standards were prepared in BALB/c mouse plasma or blank homogenized tumor tissue. Standards and samples were analyzed on a PE Sciex API4000 instrument and compound concentration was quantified and back-calculated to ng compound per g tumor tissue and converted to M concentration assuming 1 g tumor tissue equals 1 mL volume.

SMILES	PIF-tide binding to PDK1 (fluorescence polarization, words) [1]	EC50 [2]	EC50 [3]	EC50 [4]	EC50 [5]	EC50 [6]	EC50 [7]	EC50 [8]	apoptosis at 100 nM ([9]; 100 nM)	concentration inducing apoptosis ([9]; 24 hrs)	P-AKT levels [10]	pathway modulation and tumor exposure [11]
O=C(NCCCNc1nc(Nc2cccc(NC(=O)N3CCCC3)c2)ncc1I)c1cccs1 [BX-795, reference compound]	no interference with PIF-tide binding											
CNc1nc(-c2ccc3c(N)n[nH]c3c2)cc(N2C[C@@H](C(=O)NC3CCCCC3)CC[C@H]2C)n1 [GSK2334470, reference compound]		360 nM	0.105 µM	986 nM	2900 nM	2250 nM	490 nM	0.358 µM	no evidence of apoptosis	> 300 nM	barely affected	comparable to that of 50 mg/kg GDC0941 and 1 mg/kg Compound 1 or Compound 2
